The text below walks through data of ChEMBL document CHEMBL1155672, “Secobotrytriendiol and related sesquiterpenoids: new phytotoxic metabolites from Botrytis cinerea” (J Nat Prod, 2000).

What all share (type): functional, organism-based
For assay [1], the system named is Nicotiana tabacum. In words: Phytotoxicity against Nicotiana tabacum at 500 ppm after 7 days.
Assay [2] deals with Nicotiana tabacum. Description: Phytotoxicity against Nicotiana tabacum at 1000 ppm after 7 days.
For assay [3], the system named is Nicotiana tabacum. In words: Phytotoxicity against Nicotiana tabacum at 250 ppm after 7 days.

The source made the active and inactive calls. The calls are words filed in the database; no cut-off is given here.

Take `COC(=O)[C@H]1[C@H](C)C[C@H](OC(C)=O)[C@H]2C(C)(C)C[C@](C)(CO)[C@@]12O`: in the assay on Nicotiana tabacum [1], the result was Active.

Turning to `C=CC1=C(/C(=C\C)CO)[C@@](C)(CO)CC1(C)C`, the result in the assay with Nicotiana tabacum [1] was Active.

Take `CO[C@H]1O[C@H](OC)[C@@]2(C)CC(C)(C)[C@@H]3[C@@H](OC(C)=O)C[C@@H](C)[C@H]1[C@@]32O`: in the assay on Nicotiana tabacum [2], the outcome was Active.

`CC1(C)C[C@](C)(CO)c2c1ccc(CO)c2CO`: in the assay with Nicotiana tabacum [3], the outcome was Active.

In the case of `Cc1ccc2c(c1CO)[C@@](C)(CO)CC2(C)C`, the outcome in the assay on Nicotiana tabacum [1] was Active.
